Results reported in the NIST ThermoML archive (doi:10.1016/j.fluid.2015.01.026).
Numbers after ± are expanded uncertainties.

Conditions: 298.15 K; 101.33 kPa; Liquid; Vibrating tube method

Row | SMILES | mass density
1 | CCCCCCCCCCCCCCCC [hexadecane] | 770.221 ± 0.24 kg/m3
2 | CC(=O)c1ccccc1 [acetophenone] | 1023.05 ± 0.25 kg/m3

Results, then the compound that gave them:

Row | mass density | SMILES
3 | 726.347 ± 0.24 kg/m3 | CCCCCCCCCC [decane]
4 | 759.275 ± 0.24 kg/m3 | CCCCCCCCCCCCCC [tetradecane]
5 | 741.523 ± 0.58 kg/m3 | CCCCCCCCCCCC [dodecane]
